# Laboratory results reported in US9693997B2, “Antiviral compounds” (priority 2013, dated 2017).
# Counter-ions that a name gives are not always drawn.
# Legend:
# [1] = test system: Pseudotyped HCV GT1b particles (HCVpp), entry into Huh7-high CD81 cells; test: microbe, parasite or virus in culture; type: cell-based, HCV GT1b Con1 strain; details: Hepatitis C virus, GT1B, 72 h, read-out: HCVpp GT-1b (EC50, μM)
# [2] = test system: pseudotyped VSV G particles (VSVpp) in Huh7-high CD81 cells; test: microbe, parasite or virus in culture; type: cell-based, vesicular stomatitis virus; details: Vesicular stomatitis virus, 72 h, read-out: VSVpp (EC50, μM)
Compound,EC50 [1],EC50 [2]
"CC(C)(C)NCc1ccc(-c2c(Cl)cc(Nc3n[nH]c(N)n3)cc2C(F)(F)F)cc1 [Compound 58, N*3*-[4′-(tert-Butylamino-methyl)-2-chloro-6-trifluoromethyl-biphenyl-4-yl]-1H-[1,2,4]triazole-3,5-diamine; hydrochloride]",0.086 µM,4.56 µM
"CC(C)(C)OC(=O)N1CC(S(=O)(=O)c2ccc(-c3c(Cl)cc(Nc4n[nH]c(N)n4)cc3C(F)(F)F)cc2)C1 [Compound 59, 3-[4′-(5-Amino-1H-[1,2,4]triazol-3-ylamino)-6′-chloro-2′-trifluoromethyl-biphenyl-4-sulfonyl]-azetidine-1-carboxylic acid tert-butyl ester]",0.008 µM,5.78 µM
"CC1(NS(=O)(=O)c2ccc(-c3c(Cl)cc(Nc4n[nH]c(N)n4)cc3C(F)(F)F)cc2)COC1 [Compound 60, 4′-(5-Amino-1H-[1,2,4]triazol-3-ylamino)-6′-chloro-2′-trifluoromethyl-biphenyl-4-sulfonic acid (3-methyl-oxetan-3-yl)-amide]",0.014 µM,> 10 µM
"CC(C)CCS(=O)(=O)c1ccc(-c2c(Cl)cc(Nc3n[nH]c(N)n3)cc2C(F)(F)F)cc1 [Compound 61, N*3*-[6-Chloro-4′-(3-methyl-butane-1-sulfonyl)-2-trifluoromethyl-biphenyl-4-yl]-1H-1,2,4-triazole-3,5-diamine]",0.013 µM,> 10 µM
"Nc1nc(Nc2cc(Cl)c(-c3ccc(S(=O)(=O)N4CCC(F)(F)C4)cc3)c(C(F)(F)F)c2)n[nH]1 [Compound 62, N*3*-[6-Chloro-4′-(3,3-difluoro-pyrrolidine-1-sulfonyl)-2-trifluoromethyl-biphenyl-4-yl]-1H-[1,2,4]triazole-3,5-diamine]",0.02 µM,> 10 µM
"CC1(O)CN(S(=O)(=O)c2ccc(-c3c(Cl)cc(Nc4n[nH]c(N)n4)cc3C(F)(F)F)cc2)C1 [Compound 63, 1-[4′-(5-Amino-1H-[1,2,4]triazol-3-ylamino)-6′-chloro-2′-trifluoromethyl-biphenyl-4-sulfonyl]-3-methyl-azetidin-3-ol]",0.018 µM,3.86 µM
"Nc1nc(Nc2cc(Cl)c(-c3ccc(S(=O)(=O)CC4CC4)cc3)c(C(F)(F)F)c2)n[nH]1 [Compound 64, N*3*-(6-Chloro-4′-cyclopropylmethanesulfonyl-2-trifluoromethyl-biphenyl-4-yl)-1H-1,2,4-triazole-3,5-diamine]",0.023 µM,9.54 µM
"CC(C)CS(=O)(=O)c1ccc(-c2c(Cl)cc(Nc3n[nH]c(N)n3)cc2C(F)(F)F)cc1 [Compound 65, N*3*-[6-Chloro-4′-(2-methyl-propane-1-sulfonyl)-2-trifluoromethyl-biphenyl-4-yl]-1H-[1,2,4]triazole-3,5-diamine]",0.026 µM,> 10 µM
"CC1(O)CCN(S(=O)(=O)c2ccc(-c3c(Cl)cc(Nc4n[nH]c(N)n4)cc3C(F)(F)F)cc2)CC1 [Compound 66, 1-[4′-(5-Amino-1H-[1,2,4]triazol-3-ylamino)-6′-chloro-2′-trifluoromethyl-biphenyl-4-sulfonyl]-4-methyl-piperidin-4-ol]",0.101 µM,7.32 µM
"Nc1nc(Nc2cc(Cl)c(-c3ccc(S(=O)(=O)C4CNC4)cc3)c(C(F)(F)F)c2)n[nH]1 [Compound 67, N*3*-[4′-(Azetidine-3-sulfonyl)-6-chloro-2-trifluoromethyl-biphenyl-4-yl]-1H-[1,2,4]triazole-3,5-diamine hydrochloride]",0.107 µM,> 10 µM
"CC1(O)CCN(S(=O)(=O)c2ccc(-c3c(Cl)cc(Nc4n[nH]c(N)n4)cc3C(F)(F)F)cc2)C1 (stereo not shown) [Compound 68, 1-[4′-(5-Amino-1H-[1,2,4]triazol-3-ylamino)-6′-chloro-2′-trifluoromethyl-biphenyl-4-sulfonyl]-3-methyl-pyrrolidin-3-ol]",0.05 µM,8.73 µM
"Nc1nc(Nc2cc(Cl)c(-c3ccc(S(=O)(=O)N4CC5(COC5)C4)cc3)c(C(F)(F)F)c2)n[nH]1 [Compound 69, N*3*-[6-Chloro-4′-(2-oxa-6-aza-spiro[3.3]heptane-6-sulfonyl)-2-trifluoromethyl-biphenyl-4-yl]-1H-[1,2,4]triazole-3,5-diamine]",0.033 µM,> 10 µM
"CS(=O)(=O)c1ccc(-c2c(F)cc(Nc3nc(N)n[nH]3)cc2C(F)(F)F)cc1 [Compound 70, N^5-(2-Fluoro-4′-(methylsulfonyl)-6-trifluoromethylbiphenyl-4-yl)-1H-[1,2,4]-triazole-3,5-diamine]",0.064 µM,5.15 µM
"CC(C)S(=O)(=O)c1ccc(-c2c(F)cc(Nc3nc(N)n[nH]3)cc2C(F)(F)F)cc1 [Compound 71, N^5-[6-Fluoro-4′-(propane-2-sulfonyl)-2-trifluoromethyl-biphenyl-4-yl]-1H-[1,2,4]-triazole-3,5-diamine]",0.153 µM,> 10 µM
"CNS(=O)(=O)c1ccc(-c2c(F)cc(Nc3nc(N)n[nH]3)cc2C(F)(F)F)cc1 [Compound 72, 4′-(5-Amino-2H-[1,2,4]-triazol-3-ylamino)-6′-fluoro-2′-trifluoromethyl-biphenyl-4-sulfonic acid methylamide]",0.154 µM,> 10 µM
"COCC(=O)Nc1ccc(-c2c(Cl)cc(Nc3n[nH]c(N)n3)cc2Cl)cc1 [Compound 73, N-(4′-(5-amino-1H-[1,2,4]triazol-3-ylamino)-2′,6′-dichlorobiphenyl-4-yl)-2-methoxyacetamide]",0.113 µM,24.1 µM

Compound,EC50 [1],EC50 [2]
"CN(C)S(=O)(=O)c1ccc(-c2c(F)cc(Nc3nc(N)n[nH]3)cc2C(F)(F)F)cc1 [Compound 75, 4′-(5-Amino-2H-[1,2,4]-triazol-3-ylamino)-6′-fluoro-2′-trifluoromethyl-biphenyl-4-sulfonic acid dimethylamide]",0.164 µM,12.6 µM
"CS(=O)(=O)c1ccc(-c2c(F)cc(Nc3nc(N)n[nH]3)cc2F)cc1 [Compound 76, N^5-(2,6-difluoro-4′-(methylsulfonyl)biphenyl-4-yl)-1H-[1,2,4]-triazole-3,5-diamine]",0.246 µM,> 10 µM
"Nc1n[nH]c(Nc2cc(F)c(-c3ccc(S(=O)(=O)N4CCOCC4)cc3)c(F)c2)n1 [Compound 77, N^5-(2,6-difluoro-4′-(morpholine-4-sulfonyl)biphenyl-4-yl)-1H-[1,2,4]-triazole-3,5-diamine]",0.19 µM,24.7 µM
"Nc1n[nH]c(Nc2cc(F)c(-c3ccc(S(=O)(=O)N4CCOCC4)cc3)c(C(F)(F)F)c2)n1 [Compound 78, N^5-[6-Fluoro-4′-(morpholine-4-sulfonyl)-2-trifluoromethylbiphenyl-4-yl]-1H-[1,2,4]-triazole-3,5-diamine]",0.346 µM,8.18 µM
"N#Cc1ccc(-c2c(F)cc(Nc3nc(N)n[nH]3)cc2C(F)(F)F)cc1 [Compound 79, 4′-(5-Amino-2H-[1,2,4]-triazol-3-ylamino)-6′-fluoro-2′-trifluoromethyl-biphenyl-4-carbonitrile]",0.483 µM,8.11 µM
"CS(=O)(=O)c1cccc(-c2c(F)cc(Nc3nc(N)n[nH]3)cc2F)c1 [Compound 80, N^5-(2,6-difluoro-3′-(methylsulfonyl)biphenyl-4-yl)-1H-[1,2,4]-triazole-3,5-diamine]",0.286 µM,> 10 µM
"CNS(=O)(=O)c1cccc(-c2c(F)cc(Nc3nc(N)n[nH]3)cc2C(F)(F)F)c1 [Compound 81, 4′-(5-Amino-2H-[1,2,4]-triazol-3-ylamino)-6′-fluoro-2′-trifluoromethyl-biphenyl-3-sulfonic acid methylamide]",0.549 µM,34.9 µM
"Nc1nc(Nc2cc(Cl)c(-c3ccc(NC(=O)C4CCOCC4)cc3)c(Cl)c2)n[nH]1 [Compound 82, Tetrahydropyran-4-carboxylic acid-(4′-(5-amino-1H-[1,2,4]triazol-3-ylamino)-2′,6′-dichlorobiphenyl-4-yl)-amide]",0.39 µM,> 10 µM
Nc1nc(Nc2cc(Cl)c(-c3ccc([N+](=O)[O-])cc3)c(Cl)c2)n[nH]1 [Compound 83],0.532 µM,4.34 µM
"CN(C)S(=O)(=O)c1cccc(-c2c(F)cc(Nc3nc(N)n[nH]3)cc2C(F)(F)F)c1 [Compound 84, 4′-(5-Amino-2H-[1,2,4]-triazol-3-ylamino)-6′-fluoro-2′-trifluoromethyl-biphenyl-3-sulfonic acid dimethylamide]",0.43 µM,16.8 µM
"CN(C)C(=O)c1ccc(-c2c(F)cc(Nc3nc(N)n[nH]3)cc2C(F)(F)F)cc1 [Compound 85, 4′-(5-Amino-2H-[1,2,4]-triazol-3-ylamino)-6′-fluoro-2′-trifluoromethyl-biphenyl-4-carboxylic acid dimethylamide]",0.568 µM,> 10 µM
"COc1ccc(-c2c(F)cc(Nc3nc(N)n[nH]3)cc2C(F)(F)F)cc1 [Compound 86, N^5-[6-Fluoro-4′-methoxy-2-trifluoromethylbiphenyl-4-yl]-1H-[1,2,4]-triazole-3,5-diamine]",0.525 µM,8.87 µM
N#Cc1ccc(-c2c(F)cc(Nc3nc(N)n[nH]3)cc2F)cc1 [Compound 87],0.696 µM,> 10 µM
"Nc1n[nH]c(Nc2cc(F)c(-c3ccc(S(=O)(=O)C(F)(F)F)cc3)c(C(F)(F)F)c2)n1 [Compound 88, N^5-[6-Fluoro-4′-trifluoromethanesulfonyl-2-trifluoromethylbiphenyl-4-yl]-1H-[1,2,4]-triazole-3,5-diamine]",1.95 µM,25.2 µM
"N#Cc1cccc(-c2c(F)cc(Nc3nc(N)n[nH]3)cc2C(F)(F)F)c1 [Compound 89, 4′-(5-Amino-2H-[1,2,4]-triazol-3-ylamino)-6′-fluoro-2′-trifluoromethyl-biphenyl-3-carbonitrile]",25.1 µM,33.3 µM
"CS(=O)(=O)c1ccc(-c2ccc(Nc3n[nH]c(N)n3)cc2C(F)(F)F)cc1 [Compound 90, N3-(4′-(methylsulfonyl)-2-(trifluoromethyl)biphenyl-4-yl)-1H-1,2,4-triazole-3,5-diamine]",0.875 µM,15.7 µM
